Experimental data reported in PMC3394710, “Insight into Temperature Dependence of GTPase Activity in Human Guanylate Binding Protein-1” (PLoS ONE, 2012).
Residue numbers refer to the chain shown, from its start.

How the values were obtained:
Assay in all cases: thermal denaturation, tryptophan fluorescence
[1] = target: T1, human guanylate binding protein-1 (hGBP1, wild type whGBP1) (Homo sapiens, UniProt P32455); details: 0.5 µM protein, 20 mM Tris-HCl pH 7.5, 100 mM KCl, 5 mM MgCl2, Tm of free protein in the 2nd table, row 6
T1 construct: gene GBP1; purified as in earlier work
T1 sequence (P32455 1-592): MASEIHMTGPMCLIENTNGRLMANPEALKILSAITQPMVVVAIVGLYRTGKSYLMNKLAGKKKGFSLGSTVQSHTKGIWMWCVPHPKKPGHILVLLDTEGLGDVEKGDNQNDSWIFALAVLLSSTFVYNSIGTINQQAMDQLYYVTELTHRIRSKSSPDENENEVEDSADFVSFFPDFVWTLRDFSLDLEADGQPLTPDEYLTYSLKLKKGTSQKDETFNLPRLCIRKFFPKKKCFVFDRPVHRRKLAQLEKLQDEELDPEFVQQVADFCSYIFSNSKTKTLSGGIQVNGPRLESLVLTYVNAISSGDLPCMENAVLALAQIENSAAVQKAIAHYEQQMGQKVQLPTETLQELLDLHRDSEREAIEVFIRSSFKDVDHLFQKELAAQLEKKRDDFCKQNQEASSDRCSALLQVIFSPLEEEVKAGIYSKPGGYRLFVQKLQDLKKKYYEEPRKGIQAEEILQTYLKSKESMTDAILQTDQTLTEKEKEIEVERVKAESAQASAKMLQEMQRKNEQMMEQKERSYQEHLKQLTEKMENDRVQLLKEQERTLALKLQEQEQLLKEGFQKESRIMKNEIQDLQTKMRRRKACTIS
Description: thermal denaturation, tryptophan fluorescence on human guanylate binding protein-1 (hGBP1, wild type whGBP1)

[2] = target: T2, human guanylate binding protein-1 (hGBP1, wild type whGBP1) (Homo sapiens, UniProt P32455, E313A); details: 37 °C; 5 mM MgCl2, 100 mM KCl, pH 7.5; ΔCp assumed as in wild type
T2 construct: gene GBP1; purified as in earlier work
T2 sequence (P32455 1-592 E313A): T1 sequence (P32455 1-592) with E313A

[3] = target: T3, human guanylate binding protein-1 (hGBP1, wild type whGBP1) (Homo sapiens, UniProt P32455, S157A); details: 37 °C; 5 mM MgCl2, 100 mM KCl, pH 7.5; ΔCp assumed as in wild type
T3 construct: gene GBP1; purified as in earlier work
T3 sequence (P32455 1-592 S157A): T1 sequence (P32455 1-592) with S157A

Row | Heat-induced unfolding / T m / (K) ([1]; 500 µM GDP) | difference in ΔG D between analogue free and bound protein [2] [kcal/mol] | difference in ΔG D between analogue free and bound protein [3] [kcal/mol] | Heat-induced unfolding / T m / (K) ([1]; 100 µM GppNHp) | Structure (SMILES)
1 | 319.9 ± 0.4 | – | – | – | Nc1nc2c(ncn2[C@@H]2O[C@H](COP(=O)(O)OP(=O)(O)O)[C@@H](O)[C@H]2O)c(=O)[nH]1 [GDP]
2 | – | 2.4 | 0.9 | 325.2 ± 0.2 | Nc1nc2c(ncn2[C@@H]2O[C@H](COP(=O)(O)OP(=O)(O)NP(=O)(O)O)[C@@H](O)[C@H]2O)c(=O)[nH]1 [GppNHp]
